For assay [1], the target named is T1, HIV-RT from viral-lysate (WT) (Human immunodeficiency virus type 1 group M subtype B, UniProt P04585).
T1 construct: from tissue; host or cells: HIV viral lysate
Kind of assay: Inhibition of HIV-RT from viral-lysate (WT). In kind it is biochemical. The following applies: for % Inhibition / cpm/ml: RT from viral lysate (WT); for IC50: HIV RT (WT) from viral lysates from infected PBMC, triplicates from one experiment.

A further assay concerns the target T2, HIV RT (M/V) (Human immunodeficiency virus type 1 group M subtype B, UniProt P04585, M771V).
T2 construct: from tissue; host or cells: HIV viral lysate (M184V mutant strain)
Description: Inhibition of HIV-RT from viral-lysate (M/V), M184V mutant. The following applies: for % Inhibition / cpm/ml: RT from viral lysate (M/V); for IC50: HIV RT (M/V) from viral lysates from infected PBMC, triplicates from one experiment. In kind it is biochemical.

For the next assay, the target named is T3, HIV RT (M/I) (Human immunodeficiency virus type 1 group M subtype B, UniProt P04585, M771I).
T3 construct: from tissue; host or cells: HIV viral lysate (M184I mutant strain)
Description: Inhibition of HIV-RT from viral lysate, M184I mutant (M/I). In kind it is biochemical. The following applies: for % Inhibition / cpm/ml: M/I RT; for IC50: HIV RT (M/I) from viral lysates from infected PBMC, triplicates from one experiment.

Another assay concerns the target T4, Recombinant HIV RT (WT) (Human immunodeficiency virus type 1 group M subtype B, UniProt P04585).
T4 construct: was evaluated against recombinant wild type HIV-RT
Description: RT assay, recombinant wild type HIV-RT (cell-free). Format: biochemical. The conditions noted are these: triplicates from one experiment, read-out: Inhibition of RT Activity (IC50). The protocol:
[drawing 29] was evaluated against recombinant wild type HIV-RT, as well as the M184I and M184V mutants, according to the RT assay described in Eriksson B F, Chu C K, Schinazi R F; Antimicrob. Agents Chemother. 1989, 33, 1729-1734. The results are tabulated in Tables 2-5 and depicted in FIGS. 1-3.

In assay [2] the test system is HIV. Kind of assay: Anti-HIV activity in PBM cells. Format: cell-based. The conditions noted are these: Human immunodeficiency virus 1, PBMC. As to the method:
(§1) The cyclobutyl nucleoside analogs (CBN) were evaluated for their anti-HIV activity and cytotoxicity in PBM, CEM and Vero cells, according to known procedures.
(§2) The following cyclobutyl nucleoside compounds were evaluated for their anti-HIV activity and cytotoxicity in PBM cells, according to standard procedures.

A further assay relates to CEM cells. Description: Toxicity in CEM cells. Format: cell-based. The following applies: Homo sapiens, CCRF-CEM. The protocol: as §1, §2
The next assay relates to PBM cells. Kind of assay: Toxicity in PBM cells. Format: cell-based. The following applies: PBMC. As to the method: as §1, §2
The subject of assay [3] is HIV. Kind of assay: Anti-HIV activity in PBM cells. Format: cell-based. The conditions noted are these: Example 114, refers to Table 6.
Another assay has as its system Vero cells. Description: Toxicity in Vero cells. Format: cell-based. The following applies: Chlorocebus sabaeus. The protocol: as §1, §2
Assay [4] deals with HIV. The following applies: after 28 days treatment; preliminary human data; cited from earlier work.

In general, % Inhibition refers to the percentage by which the read-out fell short of the control. A high value points to a response far below the control. The term IC50 denotes the concentration needed to halve the response being measured. In general, EC50 refers to the concentration at which the effect is half-maximal. Broadly, the EC90 is the point of the concentration-response curve where the effect stands at 90%.

As for “5-fluoro-1-[cis-3-(hydroxymethyl)-cyclobutyl]-cytosine triphosphate [DLS183-TP]”, the “% Inhibition” value is on record as 0.01% in assay [1] (0.1 μM); 18% in assay [1] (1 μM); 51% in assay [1] (10 μM); 5% on HIV RT (M/V) (0.1 μM); 22% at HIV RT (M/V) (1 μM); 51% on HIV RT (M/V) (10 μM). For the same compound, the “% Inhibition” value amounted to 0.01% at HIV RT (M/I) (0.1 μM), 20% at HIV RT (M/I) (1 μM) and 53% on HIV RT (M/I) (10 μM). Moreover, the cpm/ml worked out at 280781.826 cpm/ml in assay [1] (0.1 μM); 228126.312 cpm/ml in assay [1] (1 μM); 134616.36 cpm/ml in assay [1] (10 μM); 297603.432 cpm/ml on HIV RT (M/V) (0.1 μM); 245062.692 cpm/ml on HIV RT (M/V) (1 μM); 152688.27 cpm/ml at HIV RT (M/V) (10 μM). The cpm/ml at HIV RT (M/I) (0.1 μM) came out at 407041.44 cpm/ml; on HIV RT (M/I) (1 μM), 272130.486 cpm/ml; on HIV RT (M/I) (10 μM), 160719.12 cpm/ml. The IC50 is 6.85 µM in [1], 6.91 µM on HIV RT (M/V), 6.06 µM on HIV RT (M/I) and 4.74 µM at Recombinant HIV RT (WT).

Consider `Nc1ccn([C@@H]2CS[C@H](COP(=O)(O)OP(=O)(O)OP(=O)(O)O)O2)c(=O)n1` [Compound 3TC-TP, reference compound], for which the “% Inhibition” value in assay [1] (0.1 μM) is recorded as 3.1%; in assay [1] (1 μM), 22%; in [1] (10 μM), 55%; at HIV RT (M/V) (0.1 μM), 13%; on HIV RT (M/V) (1 μM), 7%; on HIV RT (M/V) (10 μM) it was 0.01%. For the same compound, the “% Inhibition” value on HIV RT (M/I) (0.1 μM) is on record as 0.03%; at HIV RT (M/I) (1 μM), 0.03%; on HIV RT (M/I) (10 μM), 13%. Also, the cpm/ml in assay [1] (0.1 μM) came out at 268420.2 cpm/ml; in assay [1] (1 μM) it was 215883.012 cpm/ml; in assay [1] (10 μM), 124341.312 cpm/ml; at HIV RT (M/V) (0.1 μM) it was 270239.712 cpm/ml; at HIV RT (M/V) (1 μM) it was 288267.666 cpm/ml; on HIV RT (M/V) (10 μM) it was 336946.272 cpm/ml. Also, the cpm/ml on HIV RT (M/I) (0.1 μM) was 329435.346 cpm/ml; at HIV RT (M/I) (1 μM), 329605.62 cpm/ml; at HIV RT (M/I) (10 μM), 298628.406 cpm/ml. For the same compound, the IC50 is 6.53 µM in assay [1], more than 10 µM on HIV RT (M/V), more than 10 µM at HIV RT (M/I) and 2.99 µM on Recombinant HIV RT (WT).

With `O=c1ccn([C@@H]2C[C@H](CO)C2F)c(=O)[nH]1` (stereo partly drawn) [DLS-194], in the assay with HIV [2], the concentration giving a half-maximal response (EC50) was more than 100 µM.

For the compound `Nc1ccn([C@@H]2C[C@H](CO)C2F)c(=O)n1` (stereo partly drawn) [DLS-195], the concentration giving a half-maximal response (EC50) in the assay on HIV [2] was more than 100 µM.

The compound `O=c1[nH]c(=O)n([C@@H]2C[C@H](CO)C2F)cc1F` (stereo partly drawn) [DLS-196] gave an EC50 in the assay on HIV [2] of more than 100 µM.

In the assay with HIV [2], `OC[C@H]1C[C@@H](n2cnc3c(Cl)ncnc32)C1F` (stereo partly drawn) [DLS-197] registered an EC50 of more than 100 µM.

Turning to `Nc1ncnc2c1ncn2[C@@H]1C[C@H](CO)C1F` (stereo partly drawn) [DLS-206], the IC50 in the assay with CEM cells, with PBM cells and in the assay with Vero cells was more than 100 µM in each case. In the assay on HIV [2], this compound returned an EC50 of 50.4 µM. Besides, the EC90 in the assay with HIV [2] is more than 100 µM. Further, in the assay on HIV [3], the “inhibition of HIV-RT (in words)” value is “significant inhibition”.

As to `Nc1ncnc2c1ncn2[C@@H]1C[C@H](CO)C1O` (stereo partly drawn) [DLS-207], the IC50 with CEM cells is more than 100 µM; in the assay on PBM cells, 13.8 µM; with Vero cells it was 97.8 µM. The compound further registered an EC50 in the assay with HIV [2] of 33.7 µM. Also, it took 60.1 µM to reach the 90% level with HIV [2] (EC90). Besides, the “inhibition of HIV-RT (in words)” value in the assay on HIV [3] is “significant inhibition”.

With `O=c1[nH]c(=O)n(C[C@@H]2C[C@H](CO)C2O)cc1F` (stereo partly drawn) [DLS-210], the EC50 in the assay on HIV [2] is more than 100 µM.

The compound `Nc1ncnc2c1ncn2C[C@H]1C[C@H](CO)C1` [DLS-211] yielded an EC50 in the assay on HIV [2] of more than 100 µM.

`Nc1ncnc2c1ncn2CC1CC(CO)C1` (stereo not drawn) [DLS-212]: in the assay on HIV [2], the EC50 is more than 100 µM.

Compound `Nc1nc(O[C@@H]2C[C@H](CO)C2F)ncc1F` (stereo partly drawn) [DLS-221] returned an EC50 in the assay with HIV [2] of more than 100 µM.

With `Nc1nc(=O)n([C@@H]2C[C@H](CO)C2F)cc1F` (stereo partly drawn) [DLS-222], the EC50 in the assay on HIV [2] is more than 100 µM.

For `Nc1nc2c(ncn2[C@@H]2C[C@H](CO)C2F)c(=O)[nH]1` (stereo partly drawn) [DLS-223], the IC50 in the assay on CEM cells, in the assay with PBM cells and in the assay on Vero cells was more than 100 µM each time. Further, the concentration giving a half-maximal response (EC50) in the assay with HIV [2] stood at 27.7 µM. In the assay with HIV [2], the EC90 is more than 100 µM. The “inhibition of HIV-RT (in words)” value in the assay with HIV [3] was “significant inhibition”.

Turning to `Nc1nc2c(ncn2[C@@H]2CC(CO)C2CO)c(=O)[nH]1` (stereo partly drawn) [lobucavir, (R)-9-[2,3-Bis(hydroxymethyl)cyclobutyl]guanine], the “reductions in HIV viral load” value in the assay with HIV [4] is on record as not above 1.5 log.

The values are drawn from patent US8114994B2, “2′ and 3′-substituted cyclobutyl nucleoside analogs for the treatment viral infections and abnormal cellular proliferation” (Emory University, priority 2004, dated 2012).
